Experimental data published in publication PMC13128454, “Mutant p53 protein accumulation is selectively targetable by proximity-inducing drugs” (Nature Chemical Biology, 2025).
“And” between values parts separate entries of the source, which are not always exact repeats. Equal entries are not always repeated.

How the values were obtained:
Type in all cases: cell-based
[1] = system: Halo–p53-Y220C ΔTAD–mCherry 293T cells; experiment: annexin–PI staining; conditions: Y220C, Concentration 1.5, single replicate
Procedure: (§1) Cells were plated in six-well plates and treated with varying concentrations of compounds for 1 day. Cells were stained with annexin V–AF488 and PI following the manufacturer’s instructions (Thermo Fisher, V13241) and analyzed by flow cytometry (Beckman CytoFLEX LX), using untreated cells to establish gates.

parental 293T cells = experiment: annexin–PI staining; conditions: for P3_avg (P3 = early apoptotic) / P5_avg (P5 = late apoptotic): Cell_Line WT, proportion of cells; for avgprop_P3 / avgprop_P4 / avgprop_P5 / avgprop_P2 / P2_viable / P3_AnnexinPos_PIneg / P4_PIpos_AnnexinNeg / P5_PIpos_Annexinpos / prop_P3 / prop_P4 / prop_P5 / prop_P2: WT; for avgprop_P3: average proportion AnnexinPos PIneg; for avgprop_P4: average proportion PIpos AnnexinNeg; for avgprop_P5: average proportion PIpos Annexinpos; for avgprop_P2: average proportion viable; for P2_viable / P3_AnnexinPos_PIneg / P4_PIpos_AnnexinNeg / P5_PIpos_Annexinpos: event count; for P2_viable / P3_AnnexinPos_PIneg / P4_PIpos_AnnexinNeg / P5_PIpos_Annexinpos / prop_P3 / prop_P4 / prop_P5 / prop_P2: single replicate; for prop_P3: proportion AnnexinPos PIneg; for prop_P4: proportion PIpos AnnexinNeg; for prop_P5: proportion PIpos Annexinpos; for prop_P2: proportion viable
Procedure: as §1

[2] = system: p53 luciferase transcriptional reporter in Huh7 cells; experiment: p53 luciferase reporter assay; conditions: for p53 luciferase reporter signal (normalized), replicates: Huh7
Procedure: (§2) Huh7 and MFE319 cell lines stably expressing a p53 reporter (Addgene, 90363)[59] were generated. Cells were plated in 384-well plates (1,500 cells per well) and treated with varying concentrations of compound. Then, 16 h after treatment, firefly luciferase substrate was added to the cells and luminescence was monitored using an EnVision 2105 multimode plate reader.

[3] = system: p53 luciferase transcriptional reporter in MFE319 cells; experiment: p53 luciferase reporter assay; conditions: for p53 luciferase reporter signal (normalized), replicates: MFE319
Procedure: as §2

In the case of `CC[C@@H]1C(=O)N(C)c2cnc(Nc3ccc(C(=O)NC4CCN(C)CC4)cc3OC)nc2N1C1CCCC1` [BI2536], the P3_AnnexinPos_PIneg ([1]; event count) is reported as 163 and 159 and 47, the P4_PIpos_AnnexinNeg ([1]; event count) is reported as 201 and 160 and 62 and the P5_PIpos_Annexinpos ([1]; event count) is reported as 59 and 56 and 23. For the same molecule, the prop_P3 ([1]; proportion AnnexinPos PIneg) was 0.0956 and 0.09293 and 0.07321, the prop_P4 ([1]; proportion PIpos AnnexinNeg) was 0.1179 and 0.09351 and 0.09657 and the prop_P5 ([1]; proportion PIpos Annexinpos) was 0.0346 and 0.03273 and 0.03583. For the same molecule, the prop_P2 ([1]; proportion viable) was 0.7519 and 0.7808 and 0.7944, the “P3_avg (P3 = early apoptotic)” value (parental 293T cells; Concentration 0.75) was 0.04079 and the “P5_avg (P5 = late apoptotic)” value (parental 293T cells; Concentration 0.75) was 0.01489. For the same molecule, the “P3_avg (P3 = early apoptotic)” value (parental 293T cells; Concentration 1.5) was 0.1126, the “P5_avg (P5 = late apoptotic)” value (parental 293T cells; Concentration 1.5) was 0.03242 and the avgprop_P3 (parental 293T cells; Concentration 0.75) was 0.04079. It also gave an avgprop_P4 (parental 293T cells; Concentration 0.75) of 0.03008, an avgprop_P5 (parental 293T cells; Concentration 0.75) of 0.01489 and an avgprop_P2 (parental 293T cells; Concentration 0.75) of 0.9142. The P2_viable (parental 293T cells; Concentration 0.75) was 2015 and 2037 and 2022, the P3_AnnexinPos_PIneg (parental 293T cells; Concentration 0.75) was 93 and 83 and 95 and the P4_PIpos_AnnexinNeg (parental 293T cells; Concentration 0.75) was 62 and 58 and 80. The P5_PIpos_Annexinpos (parental 293T cells; Concentration 0.75) was 28 and 35 and 36, the prop_P3 (parental 293T cells; Concentration 0.75) was 0.04231 and 0.03751 and 0.04254 and the prop_P4 (parental 293T cells; Concentration 0.75) was 0.02821 and 0.02621 and 0.03583. The prop_P5 (parental 293T cells; Concentration 0.75) was 0.01274 and 0.01582 and 0.01612, the prop_P2 (parental 293T cells; Concentration 0.75) was 0.9167 and 0.9205 and 0.9055 and the avgprop_P3 (parental 293T cells; Concentration 1.5) was 0.1126. For the same molecule, the avgprop_P4 (parental 293T cells; Concentration 1.5) was 0.02945, the avgprop_P5 (parental 293T cells; Concentration 1.5) was 0.03242 and the avgprop_P2 (parental 293T cells; Concentration 1.5) was 0.8255. The P2_viable (parental 293T cells; Concentration 1.5) was 1572 and 1534 and 1608, the P3_AnnexinPos_PIneg (parental 293T cells; Concentration 1.5) was 206 and 222 and 215 and the P4_PIpos_AnnexinNeg (parental 293T cells; Concentration 1.5) was 60 and 57 and 51. For the same molecule, the P5_PIpos_Annexinpos (parental 293T cells; Concentration 1.5) was 54 and 71 and 60, the prop_P3 (parental 293T cells; Concentration 1.5) was 0.1089 and 0.1178 and 0.1112 and the prop_P4 (parental 293T cells; Concentration 1.5) was 0.03171 and 0.03025 and 0.02637. For the same molecule, the prop_P5 (parental 293T cells; Concentration 1.5) was 0.02854 and 0.03769 and 0.03102, the prop_P2 (parental 293T cells; Concentration 1.5) was 0.8309 and 0.8142 and 0.8314 and the “induction of p53 reporter” value ([2]; 16 h, PMV6 at doses of 1.25–10 μM) was “no such effect”. For the same molecule, the “p53 luciferase reporter signal (normalized), replicates” value ([2]; log Concentration (pM) 1.68867) was 1.071 and 1.082 and 0.9754, the “p53 luciferase reporter signal (normalized), replicates” value ([2]; log Concentration (pM) 1.9897) was 0.9944 and 0.9877 and 0.9088 and the “p53 luciferase reporter signal (normalized), replicates” value ([2]; log Concentration (pM) 2.29073) was 0.9631 and 0.9698 and 0.9782. The “p53 luciferase reporter signal (normalized), replicates” value ([2]; log Concentration (pM) 2.59176) was 1.0179 and 0.8887 and 0.8977, the “p53 luciferase reporter signal (normalized), replicates” value ([2]; log Concentration (pM) 2.89279) was 1.088 and 0.9771 and 0.9776 and the “p53 luciferase reporter signal (normalized), replicates” value ([2]; log Concentration (pM) 3.19382) was 1.04 and 1.0179 and 1.023. For the same molecule, the “p53 luciferase reporter signal (normalized), replicates” value ([2]; log Concentration (pM) 3.49485) was 0.8529 and 0.9603 and 1.044, the “p53 luciferase reporter signal (normalized), replicates” value ([2]; log Concentration (pM) 3.79588) was 0.8775 and 0.9273 and 0.8786 and the “p53 luciferase reporter signal (normalized), replicates” value ([2]; log Concentration (pM) 4.09691) was 0.9161 and 0.9032 and 0.92. For the same molecule, the “p53 luciferase reporter signal (normalized), replicates” value ([2]; log Concentration (pM) 4.39794) was 0.8747 and 0.91 and 0.9648, the “p53 luciferase reporter signal (normalized), replicates” value ([2]; log Concentration (pM) 4.69897) was 0.9245 and 0.9167 and 0.9228 and the “p53 luciferase reporter signal (normalized), replicates” value ([2]; log Concentration (pM) 5) was 0.7964 and 0.863 and 0.8635. For the same molecule, the “induction of p53 reporter” value ([3]; 16 h) was “no induction of luciferase activity”, the “p53 luciferase reporter signal (normalized), replicates” value ([3]; log Concentration (pM) 1.68867) was 0.8432 and 0.8795 and 0.997 and the “p53 luciferase reporter signal (normalized), replicates” value ([3]; log Concentration (pM) 1.9897) was 1.008 and 0.9306 and 1.09. The “p53 luciferase reporter signal (normalized), replicates” value ([3]; log Concentration (pM) 2.29073) was 0.7831 and 0.9939 and 0.826, the “p53 luciferase reporter signal (normalized), replicates” value ([3]; log Concentration (pM) 2.59176) was 1.029 and 1.032 and 0.9459 and the “p53 luciferase reporter signal (normalized), replicates” value ([3]; log Concentration (pM) 2.89279) was 0.8553 and 0.942 and 1.018. The “p53 luciferase reporter signal (normalized), replicates” value ([3]; log Concentration (pM) 3.19382) was 0.956 and 0.9365 and 0.9572, the “p53 luciferase reporter signal (normalized), replicates” value ([3]; log Concentration (pM) 3.49485) was 0.8748 and 0.9709 and 0.8007 and the “p53 luciferase reporter signal (normalized), replicates” value ([3]; log Concentration (pM) 3.79588) was 0.8943 and 0.9669 and 0.8623. The “p53 luciferase reporter signal (normalized), replicates” value ([3]; log Concentration (pM) 4.09691) was 0.6004 and 0.8065 and 0.6757, the “p53 luciferase reporter signal (normalized), replicates” value ([3]; log Concentration (pM) 4.39794) was 0.6617 and 0.6465 and 0.5696 and the “p53 luciferase reporter signal (normalized), replicates” value ([3]; log Concentration (pM) 4.69897) was 0.5274 and 0.6902 and 0.6941. For the same molecule, the “p53 luciferase reporter signal (normalized), replicates” value ([3]; log Concentration (pM) 5) was 0.7269 and 0.634 and 0.6632.
